In brackets after ≈: the same amount, converted by molar mass. Like-named read-outs stand apart in the source and are kept apart here. Each block holds one compound with its values, some of them ahead of it.
Assays:
[1] = system: M. mycetomatis genome strain MM55; set-up: method as in PMID 29698504; conditions: parasitic DHODH inhibitors of the MMV Pathogen Box screened previously; cited from earlier work
[2] = system: M. mycetomatis genome strain MM55; experiment: CLSI M38-A2 based in vitro susceptibility screening (XTT or resazurin), growth at fixed concentration; type: cell-based, Madurella mycetomatis; conditions: Madurella mycetomatis
[3] = system: F. senegalensis strain CBS132257; experiment: CLSI M38-A2 based in vitro susceptibility screening at 25 μM; type: cell-based, Falciformispora senegalensis; conditions: selected if >75% (resazurin) or >80% (XTT) fungal growth inhibited
[4] = system: Me. romeroi strain CBS128765; experiment: as above; type: cell-based, Medicopsis romeroi; conditions: selected if >75% (resazurin) or >80% (XTT) fungal growth inhibited
M. mycetomatis MM55 = experiment: IC50 determination, 2-fold dilution series 16 to 0.03125 μM; type: cell-based, Madurella mycetomatis; conditions: for IC50 / IC90: Madurella mycetomatis
[5] = system: ten different M. mycetomatis isolates; set-up: method as in PMID 24945848, PMID 22964246, PMID 31904836; conditions: asterisk: determined in previous works ref 19-21; cited from earlier work
eumycetoma = conditions: cited from earlier work
[6] = system: M. pseudomycetomatis strain Mex2A; experiment: CLSI M38-A2 based in vitro susceptibility screening at 25 μM; type: cell-based, Madurella pseudomycetomatis; conditions: selected if >75% (resazurin) or >80% (XTT) fungal growth inhibited
[7] = system: M. tropicana strain CBS206.47; experiment: as above; type: cell-based, Madurella tropicana; conditions: selected if >75% (resazurin) or >80% (XTT) fungal growth inhibited
[8] = system: M. mycetomatis isolate MM55; experiment: M. mycetomatis grain infection model in G. mellonella larvae, survival; type: in vivo, Galleria mellonella; set-up: In vivo efficacy, Larvae survival %: concentration or dose not given beside the values; conditions: for Larvae survival rate on day ten: 20 μM per larvae at 4, 28, 52 h after infection
[9] = MM55, Table 2, M. mycetomatis MM55, read-out: IC50
[10] = G. mellonella larvae infected with M. mycetomatis

SMILES: O=C(NC1CC1)c1ccc(N2CCOc3ccc(Cl)cc32)s1 [MMV020537]
In vitro activity against M. mycetomatis [1]: no activity

SMILES: CC(C)C(NC(=O)Cc1cccc2ccccc12)C(=O)Nc1cccc(C#N)c1 (stereo not shown) [MMV020591]
In vitro activity against M. mycetomatis [1]: no activity

IC50 (M. mycetomatis MM55; [9]): 1130 nM | IC50 (M. mycetomatis MM55; MM55, mean, read-out: IC50 mean): 1130 nM | IC90 (M. mycetomatis MM55; MM55, read-out: IC90 mean): 2210 nM | IC50 (M. mycetomatis MM55; MM55, replicate 1, read-out: IC50 1): 1700 nM | IC90 (M. mycetomatis MM55; MM55, replicate 1, read-out: IC90 1): 3800 nM | IC50 (M. mycetomatis MM55; MM55, replicate 2, read-out: IC50 2): 740 nM | IC90 (M. mycetomatis MM55; MM55, replicate 2, read-out: IC90 2): 1320 nM | IC50 (M. mycetomatis MM55; MM55, replicate 3, read-out: IC50 3): 940 nM | IC90 (M. mycetomatis MM55; MM55, replicate 3, read-out: IC90 3): 1500 nM
SMILES: CCC(C)n1ncn(-c2ccc(N3CCN(c4ccc(OCC5COC(Cn6cncn6)(c6ccc(Cl)cc6Cl)O5)cc4)CC3)cc2)c1=O (stereo not shown) [MMV637528, Itraconazole, reference compound]
activity at 25 µM ([2]; mean, read-out: Percentage survival at 25um, 25 uM mean): -1.04% | activity at 25 µM ([2]; replicate A, read-out: Percentage survival at 25um, 25 um A): -2.88% | activity at 25 µM ([2]; replicate B, read-out: Percentage survival at 25um, 25 uM B): -2.55% | activity at 25 µM ([2]; replicate C, read-out: Percentage survival at 25um, 25 uM C): 2.31% | activity at 100 µM ([2]; 100 uM, mean, read-out: Percentage survival at 100um, 100 uM mean): 2.34% | activity at 100 µM ([2]; 100 uM, replicate (first column), read-out: Percentage survival at 100um, 100 uM A): -3.71% | activity at 100 µM ([2]; 100 uM, replicate (second column), read-out: Percentage survival at 100um, 100 uM A): 3.66% | activity at 100 µM ([2]; 100 uM, replicate (third column), read-out: Percentage survival at 100um, 100 uM A): 7.05% | Inhibits growth of Falciformispora senegalensis at 25 μM [3]: did not inhibit the growth | Inhibits growth of Medicopsis romeroi at 25 μM [4]: did not inhibit the growth | MIC50 [5]: 0.05 µM (≈ 0.0353 µg/mL) | MIC range [5]: <0.02 to 0.25 µM | Cure rate of patients (eumycetoma; eumycetoma patients, itraconazole with surgery): 8% - 26%

IC50 (M. mycetomatis MM55; [9]): < 16 nM | IC50 (M. mycetomatis MM55; MM55, mean of replicates, read-out: IC50 mean): < 98 nM | IC50 (M. mycetomatis MM55; MM55, replicate 1, read-out: IC50 1 um): < 98 nM | IC90 (M. mycetomatis MM55; MM55, replicate 1, read-out: IC90 1 um): 3100 nM | IC50 (M. mycetomatis MM55; MM55, replicate 2, read-out: IC50 2 um): < 98 nM | IC90 (M. mycetomatis MM55; MM55, replicate 2, read-out: IC90 2 um): < 98 nM | IC50 (M. mycetomatis MM55; MM55, replicate 3, read-out: IC50 3 um): < 98 nM | IC90 (M. mycetomatis MM55; MM55, replicate 3, read-out: IC90 3 um): < 98 nM
SMILES: Cc1cc(-c2ccccc2)c(C(=O)C(=O)Nc2ccc(N3CCN(c4ncc(F)cn4)CC3)cc2)n1C [MMV1782354, Olorofim]
activity at 25 µM ([2]; mean of three, M. mycetomatis MM55, read-out: Percentage survival at 25um, 25 uM mean): 8.22% | activity at 25 µM ([2]; replicate A, M. mycetomatis MM55, read-out: Percentage survival at 25um, 25 um A): 5.03% | activity at 25 µM ([2]; replicate B, M. mycetomatis MM55, read-out: Percentage survival at 25um, 25 uM B): 11.4% | activity at 25 µM ([2]; replicate C, M. mycetomatis MM55, read-out: Percentage survival at 25um, 25 uM C): 8.27% | activity at 100 µM ([2]; 100 uM, mean of three, M. mycetomatis MM55, read-out: Percentage survival at 100um, 100 uM mean): 8.8% | activity at 100 µM ([2]; 100 uM, replicate 1, M. mycetomatis MM55, read-out: Percentage survival at 100um, 100 uM A (first replicate column)): 0.903% | Percent fungal survival at 100 µM ([2]; 100 uM, replicate 2, M. mycetomatis MM55, read-out: Percentage survival at 100um, 100 uM A (second replicate column)): 10.2% | activity at 100 µM ([2]; 100 uM, replicate 3, M. mycetomatis MM55, read-out: Percentage survival at 100um, 100 uM A (third replicate column)): 15.3% | Inhibits growth of Madurella pseudomycetomatis at 25 μM [6]: able to inhibit the growth | Inhibits growth of Madurella tropicana at 25 μM [7]: able to inhibit the growth | Inhibits growth of Falciformispora senegalensis at 25 μM [3]: no activity | Inhibits growth of Medicopsis romeroi at 25 μM [4]: no activity | Drug static or cidal (M. mycetomatis MM55; M. mycetomatis): Cidal | Larvae survival rate on day ten ([8]; listed as Olorofim): 33% | Larvae survival rate on day ten ([8]; listed as olorofim): 33.3% | In vivo efficacy, Enhanced survival compared to control? [8, 10]: yes ** | In vivo efficacy, Larvae survival % [8, 10]: 0.0443% | MIC50 [5]: 0.06 µM (≈ 0.0299 µg/mL) | MIC range [5]: 0.004 to 0.13 µM

SMILES: CN(C/C=C/C#CC(C)(C)C)Cc1cccc2ccccc12 [Terbinafine]
Inhibits growth of Madurella pseudomycetomatis at 25 μM [6]: not the Madurella species | Inhibits growth of Falciformispora senegalensis at 25 μM [3]: inhibit the growth | Inhibits growth of Medicopsis romeroi at 25 μM [4]: inhibit the growth | Cure rate of patients (eumycetoma; Senegal, 500 mg twice daily for 24-48 weeks combined with surgery): 30%
